Measurements published in ChEMBL document CHEMBL1152906, “Synthesis and evaluation of carbamate prodrugs of SQ109 as antituberculosis agents” (Bioorg Med Chem Lett, 2009).
Where “and” joins values, the source holds several entries; their conditions need not be identical. Equal values may be shown once. Blank lines part the entries; values can stand above or below the molecule they belong to.

How the values were obtained:
Rattus norvegicus [1] = experiment: Cmax in rat assessed as N-Geranyl-N0-(2-adamantyl)ethane-1,2-diamine level at 13 mg/kg, po; type: ADME, organism-based; parameters: dose 13 mg/kg, route oral; details: in vivo
Rattus norvegicus [2] = experiment: Tmax in rat assessed as N-Geranyl-N0-(2-adamantyl)ethane-1,2-diamine level at 13 mg/kg, po; type: ADME, organism-based; parameters: dose 13 mg/kg, route oral; details: in vivo
Rattus norvegicus [3] = experiment: Half life in rat assessed as N-Geranyl-N0-(2-adamantyl)ethane-1,2-diamine level at 13 mg/kg, po; type: ADME, organism-based; parameters: dose 13 mg/kg, route oral; details: in vivo
Rattus norvegicus [4] = experiment: Clearance in rat assessed as N-Geranyl-N0-(2-adamantyl)ethane-1,2-diamine level at 13 mg/kg, po; type: ADME, organism-based; parameters: dose 13 mg/kg, route oral; details: in vivo
Rattus norvegicus [5] = experiment: AUC(0 to 24 hrs) in rat assessed as N-Geranyl-N0-(2-adamantyl)ethane-1,2-diamine level at 13 mg/kg, po; type: ADME, organism-based, Plasma; parameters: time < 24 hr, dose 13 mg/kg, route oral; details: in vivo
Rattus norvegicus [6] = experiment: Oral bioavailability in rat assessed as N-Geranyl-N0-(2-adamantyl)ethane-1,2-diamine level at 13 mg/kg; type: ADME, organism-based; details: in vivo
Lung [7] = experiment: Drug uptake in rat lung assessed as N-Geranyl-N0-(2-adamantyl)ethane-1,2-diamine level at 13 mg/kg, po after 4 hrs; type: ADME, organism-based; parameters: dose 13 mg/kg, route oral; details: in vivo
Lung [8] = experiment: Drug uptake in rat lung assessed as N-Geranyl-N0-(2-adamantyl)ethane-1,2-diamine level at 13 mg/kg, po after 10 hrs; type: ADME, organism-based; parameters: dose 13 mg/kg, route oral; details: in vivo
[9] = Ratio of drug level in rat lung to plasma assessed as N-Geranyl-N0-(2-adamantyl)ethane-1,2-diamine level at 13 mg/kg, po after 4 hrs; type: ADME, organism-based; parameters: dose 13 mg/kg, route oral; details: other tissue
[10] = Stability of compound in Sorensens buffer at pH 7.4; type: physicochemical
[11] = Oral bioavailability in rat; type: ADME, organism-based; details: in vivo
[12] = Oral bioavailability in dog; type: ADME, organism-based, Canis lupus familiaris; details: in vivo
[13] = Cmax in rat at 1.5 mg/kg, iv; type: ADME, organism-based; parameters: dose 1.5 mg/kg, route intravenous; details: in vivo
[14] = Half life in rat at 1.5 mg/kg, iv; type: ADME, organism-based; parameters: dose 1.5 mg/kg, route intravenous; details: in vivo
[15] = Clearance in rat at 1.5 mg/kg, iv; type: ADME, organism-based; parameters: dose 1.5 mg/kg, route intravenous; details: in vivo
[16] = AUC(0 to 24 hrs) in rat at 1.5 mg/kg, iv; type: ADME, organism-based; parameters: time < 24 hr, dose 1.5 mg/kg, route intravenous; details: plasma
[17] = Cmax in rat at 13 mg/kg, po; type: ADME, organism-based; parameters: dose 13 mg/kg, route oral; details: in vivo
[18] = Tmax in rat at 13 mg/kg, po; type: ADME, organism-based; parameters: dose 13 mg/kg, route oral; details: in vivo
[19] = Half life in rat at 13 mg/kg, po; type: ADME, organism-based; parameters: dose 13 mg/kg, route oral; details: in vivo
[20] = Clearance in rat at 13 mg/kg, po; type: ADME, organism-based; parameters: dose 13 mg/kg, route oral; details: in vivo
[21] = AUC(0 to 24 hrs) in rat at 13 mg/kg, po; type: ADME, organism-based; parameters: time < 24 hr, dose 13 mg/kg, route oral; details: plasma
[22] = Oral bioavailability in rat at 13 mg/kg; type: ADME, organism-based; details: in vivo

Cmax (Rattus norvegicus [1]): 1309.3 ng/mL
Tmax (Rattus norvegicus [2]): 1 h
t1/2 (Rattus norvegicus [3]): 4.58 h
CL (Rattus norvegicus [4]): 41.5 mL/min/kg
AUC (Rattus norvegicus [5]): 5441.2 ng·h/mL
F (Rattus norvegicus [6]): 91.4%
Drug uptake (Lung [7]): 35.08 µg/g
Drug uptake (Lung [8]): 29.03 µg/g
fold change (FC) [9]: 76 and 60
Compound: CC(C)=CCC/C(C)=C/CN(CCNC1C2CC3CC(C2)CC1C3)C(=O)OCOC(=O)C(C)C.O=C(O)/C=C\C(=O)O (centres undefined)

Stability [10]: Unstable
Compound: CC(C)=CCC/C(C)=C/CN(CCNC1C2CC3CC(C2)CC1C3)C(=O)OC(C)OC(=O)C(C)(C)C.O=C(O)/C=C\C(=O)O (centres undefined)

Stability [10]: Unstable
Compound: CC(C)=CCC/C(C)=C/CN(CCNC1C2CC3CC(C2)CC1C3)C(=O)OC(C)OC(=O)C(C)C.O=C(O)/C=C\C(=O)O (centres undefined)

Cmax (Rattus norvegicus [1]): 585.6 ng/mL
Tmax (Rattus norvegicus [2]): 1.4 h
t1/2 (Rattus norvegicus [3]): 5.6 h
CL (Rattus norvegicus [4]): 50 mL/min/kg
AUC (Rattus norvegicus [5]): 4224.8 ng·h/mL
F (Rattus norvegicus [6]): 72.6%
Compound: CC(C)=CCC/C(C)=C/CN(CCNC1C2CC3CC(C2)CC1C3)C(=O)OCOC(=O)C(C)(C)C.O=C(O)/C=C\C(=O)O (centres undefined)

Compound: CC(C)=CCC/C(C)=C/CNCCNC1C2CC3CC(C2)CC1C3 (centres undefined) [SQ109]
bioavailability [11]: 12%
bioavailability [12]: 3.8%
Cmax [13]: 889 ng/mL
half-life [14]: 5.06 h
clearance [15]: 17.5 mL/min/kg
AUC(0-t) at 24 h [16]: 1230 ng·h/mL
Cmax [17]: 499 ng/mL
Tmax [18]: 0.75 h
half-life [19]: 3.71 h
CL/F [20]: 82.3 mL/min/kg
AUC(0-t) at 24 h [21]: 2330 ng·h/mL
bioavailability [22]: 21.9%
